Results published in patent US12662461B2, “Tricyclic compound and pharmaceutical use thereof” (JD BIOSCIENCE INC., priority 2019, dated 2026).
Where a name gives a salt, the structure may show the parent alone.

Biological target: serotonin 2A (5-HT2A) receptor (Homo sapiens, UniProt P28223)
Test: Measurement of inhibitory activity against serotonin 2A receptor (in vitro)
Assay type: biochemical
Conditions: inhibitory activity against serotonin 2A (5-HT2A) receptor
Source text: Experimental Example: Measurement of Inhibitory Activity Against Serotonin 2A Receptor

serotonin 2A (5-HT2A) receptor, sequence (P28223 whole entry, species assumed): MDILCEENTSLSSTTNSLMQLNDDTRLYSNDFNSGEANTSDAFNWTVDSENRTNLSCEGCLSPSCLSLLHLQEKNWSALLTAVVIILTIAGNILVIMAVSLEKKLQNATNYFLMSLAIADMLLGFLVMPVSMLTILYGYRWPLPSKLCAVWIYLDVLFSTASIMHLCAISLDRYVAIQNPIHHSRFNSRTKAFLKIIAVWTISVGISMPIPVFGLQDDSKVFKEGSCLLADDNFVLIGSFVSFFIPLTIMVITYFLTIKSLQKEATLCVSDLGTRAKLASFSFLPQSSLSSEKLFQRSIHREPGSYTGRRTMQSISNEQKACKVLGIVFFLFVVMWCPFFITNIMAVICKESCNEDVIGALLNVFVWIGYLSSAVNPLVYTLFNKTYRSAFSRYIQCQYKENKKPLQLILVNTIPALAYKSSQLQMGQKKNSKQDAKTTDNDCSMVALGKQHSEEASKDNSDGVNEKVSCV

With `O=c1[nH]c2ccccc2c(=O)n1CCN1CCC(=C2c3ccc(Cl)cc3CCc3cccnc32)CC1` [Example 12, 3-(2-(4-(8-chloro-5,6-dihydro-11H-benzo[5,6]cyclohepta[1,2-b]pyridin-11-ylidene)piperidin-1-yl)ethyl)quinazoline-2,4(1H,3H)-dione] the IC50 was 47 nM.
Compound `CN1CCC(=C2c3ccc(Cl)cc3CCc3cccnc32)CC1` [Example 13, 8-chloro-11-(1-methylpiperidin-4-ylidene)-6,11-dihydro-5H-benzo[5,6]cyclohepta[1,2-b]pyridine] has an IC50 of 119 nM.
In the case of `N[C@@H](Cc1ccc(OCCCCN2CCC(=C3c4ccc(Cl)cc4CCc4cccnc43)CC2)cc1)C(=O)O` [Example 14, (S)-2-amino-3-(4-(4-(4-(8-chloro-5,6-dihydro-11H-benzo[5,6]cyclohepta[1,2-b]pyridin-11-ylidene)piperidin-1-yl)butoxy)phenyl)propionic acid trihydrochloride], the IC50 is reported as 188 nM.
Compound `Cc1nc2sccn2c1C(O)CN1CCC(=C2c3ccc(Cl)cc3CCc3cccnc32)CC1` (stereo not shown) [Example 15, 2-(4-(8-chloro-5,6-dihydro-11H-benzo[5,6]cyclohepta[1,2-b]pyridin-11-ylidene)piperidin-1-yl)-1-(6-methylimidazo[2,1-b]thiazol-5-yl)ethan-1-ol] has an IC50 of 30 nM.
With `O=C1CCc2ccc(OCCCCN3CCC(=C4c5ccc(Cl)cc5CCc5cccnc54)CC3)cc2N1` [Example 18, 7-(4-(4-(8-chloro-5,6-dihydro-11H-benzo[5,6]cyclohepta[1,2-b]pyridin-11-ylidene)piperidin-1-yl)butoxy)-3,4-dihydroquinolin-2(1H)-one] the IC50 was 1.3 nM.
For `O=C1C2CCCCC2C(=O)N1CCCCN1CCC(=C2c3ccc(Cl)cc3CCc3cccnc32)CC1` (stereo not shown) [Example 19, 2-(4-(4-(8-chloro-5,6-dihydro-11H-benzo[5,6]cyclohepta[1,2-b]pyridin-11-ylidene)piperidin-1-yl)butyl)hexahydro-1H-isoindole-1,3(2H)-dione], the IC50 was 0.19 nM.
For `N[C@@H](Cc1ccc(OCCCCN2CCC(=C3c4ccc(Cl)cc4CCc4cccnc43)CC2)c(Cl)c1)C(=O)O` [Example 20, (S)-2-amino-3-(3-chloro-4-(4-(4-(8-chloro-5,6-dihydro-11H-benzo[5,6]cyclohepta[1,2-b]pyridin-11-ylidene)piperidin-1-yl)butoxy)phenyl)propionic acid trihydrochloride], the IC50 was 2.08 nM.
`N[C@@H](Cc1ccc(OCCCN2CCC(=C3c4ccc(Cl)cc4CCc4cccnc43)CC2)c(Cl)c1)C(=O)O` [Example 21, (S)-2-amino-3-(3-chloro-4-(3-(4-(8-chloro-5,6-dihydro-11H-benzo[5,6]cyclohepta[1,2-b]pyridin-11-ylidene)piperidin-1-yl)propoxy)phenyl)propionic acid trihydrochloride] gave an IC50 of 2.1 nM.
For `N[C@@H](Cc1ccc(OCCCN2CCC(=C3c4ccc(Cl)cc4CCc4cccnc43)CC2)cc1)C(=O)O` [Example 22, (S)-2-amino-3-(4-(3-(4-(8-chloro-5,6-dihydro-11H-benzo[5,6]cyclohepta[1,2-b]pyridin-11-ylidene)piperidin-1-yl)propoxy)phenyl)propionic acid trihydrochloride], the IC50 was 1.3 nM.
In the case of `O=C(CN1CCC(=C2c3ccc(Cl)cc3CCc3cccnc32)CC1)c1ccc(Br)cc1` [Example 24, 1-(4-bromophenyl)-2-(4-(8-chloro-5,6-dihydro-11H-benzo[5,6]cyclohepta[1,2-b]pyridin-11-ylidene)piperidin-1-yl)ethan-1-one], the IC50 is reported as 8.1 nM.
With `OC(CN1CCC(=C2c3ccc(Cl)cc3CCc3cccnc32)CC1)c1ccc(Br)cc1` (stereo not shown) [Example 27, 1-(4-bromophenyl)-2-(4-(8-chloro-5,6-dihydro-11H-benzo[5,6]cyclohepta [1,2-b]pyridin-11-ylidene)piperidin-1-yl)ethan-1-ol] the IC50 was 1.19 nM.
Compound `O=C1C2C(C(=O)N1CCCCN1CCC(=C3c4ccc(Cl)cc4CCc4cccnc43)CC1)[C@H]1CC[C@@H]2C1` (stereo partly drawn) [Example 30, (4R,7S)-2-(4-(4-(8-chloro-5,6-dihydro-11H-benzo[5,6]cyclohepta[1,2-b]pyridin-11-ylidene)piperidin-1-yl)butyl)hexahydro-1H-4,7-methanoisoindole-1,3(2H)-dione] has an IC50 of 0.15 nM.
In the case of `COc1cccc(CCc2ccccc2OCC(O)CN2CCC(=C3c4ccc(Cl)cc4CCc4cccnc43)CC2)c1` (stereo not shown) [Example 60, 1-(4-(8-chloro-5,6-dihydro-11H-benzo[5,6]cyclohepta[1,2-b]pyridin-11-ylidene)piperidin-1-yl)-3-(2-(3-methoxyphenethyl)phenoxy)propan-2-ol], the IC50 is reported as 30.8 nM.
